≈ marks a conversion by molar mass, not a printed value. Like-named read-outs stand apart in the source and are kept apart here.

What all share (assay type): cell-based
Experiment [1] deals with E. coli MP-9 ΔTolC. In words: MIC (broth microdilution or agar dilution, CLSI). Conditions: Escherichia coli. In a few lines:
(§1)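 Per CLSI, MICs by broth microdilution or agar dilution; strains other than streptococci and anaerobes were sub-cultured overnight at 35° C on blood agar, with a final broth inoculum of 5×10^5 CFU/mL.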

In experiment [2] the test system is S. aureus ATCC 29213. In words: MIC (broth microdilution or agar dilution, CLSI). Particulars: Staphylococcus aureus, read-out: MIC. In a few lines:
as §1
In general terms: In broth dilution the organism is exposed to a series of concentrations in liquid medium.

In experiment [3] the test system is E. coli ATCC 25922. In words: MIC (broth microdilution or agar dilution, CLSI). Particulars: Escherichia coli. In a few lines:
as §1

Experiment [4] relates to S. pyogenes ATCC 19615. In words: MIC (broth microdilution or agar dilution, CLSI). Conditions: Streptococcus pyogenes, read-out: MIC. In a few lines: as §1
Experiment [5] concerns E. faecalis ATCC 29212. In words: MIC (broth microdilution or agar dilution, CLSI). Particulars: Enterococcus faecalis, read-out: MIC. In a few lines: as §1
In experiment [6] the test system is S. pneumoniae ATCC 49619. In words: MIC (broth microdilution or agar dilution, CLSI). Conditions: Streptococcus pneumoniae, read-out: MIC. In a few lines:
as §1

The test system of experiment [7] is H. influenzae ATCC 49247. In words: MIC (broth microdilution or agar dilution, CLSI). Particulars: Haemophilus influenzae, ATCC49247. In a few lines:
as §1

The subject of experiment [8] is E. coli MP-74 LptD mutant. In words: MIC (broth microdilution or agar dilution, CLSI). Particulars: Escherichia coli. In a few lines: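 MICs were measured by CLSI broth microdilution or agar dilution over 128-0.06 μg/mL test compound at 2.5% final DMSO, in triplicate. Non-streptococcal, aerobic strains were grown overnight at 35° C on sheep blood agar, suspended in cation-adjusted Mueller-Hinton broth to 0.5 McFarland, and diluted to 5×10^5 CFU/mL.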

Experiment [9] deals with S. aureus BAA 977 iErmA. In words: microbe, parasite or virus in culture. Particulars: Staphylococcus aureus, BAA-977 / MRSA. In a few lines:
as §1

The test system of experiment [10] is broad panel of different clinical isolates. In words: microbe, parasite or virus in culture. In a few lines: as §1
The subject of experiment [11] is S. aureus MP-549 msrA. In words: microbe, parasite or virus in culture. Particulars: Staphylococcus aureus, MP549MSRA; S. aureus HAV#032, MP-549; MSR(A). In a few lines:
as §1

Experiment [12] relates to E. coli ΔTolC. In words: microbe, parasite or virus in culture. Particulars: Escherichia coli, E. coli HAV#038; ΔTolC. In a few lines:
as §1

The subject of experiment [13] is S. aureus MMX 3035 cErmA. In words: MIC (broth microdilution or agar dilution, CLSI). Conditions: Staphylococcus aureus, MMX3035CERMA; S. aureus HAV#031, MMX 3035; cErmA; read-out: MIC. In a few lines:
as §1

Experiment [14] concerns S. pneumoniae MMX 3031 cMefA. In words: MIC (broth microdilution or agar dilution, CLSI). Conditions: Streptococcus pneumoniae, MMX3031CMEFA, S. pneumoniae HAV#034; MMX 3031, cMefA; read-out: MIC. In a few lines: as §1
For experiment [15], the system named is S. pneumoniae ATCC 6303. In words: MIC (broth microdilution or agar dilution, CLSI). Particulars: Streptococcus pneumoniae, ATCC6303; S. pneumoniae HAV#351, ATCC 6303; read-out: MIC. In a few lines:
as §1

The subject of experiment [16] is S. pyogenes MMX 946; cErmB. In words: MIC (broth microdilution or agar dilution, CLSI). Particulars: Streptococcus pyogenes; S. pyogenes HAV#035, MMX 946; cErmB, mac-resistant; read-out: MIC. In a few lines: as §1
Experiment [17] relates to K. oxytoca Clinical. In words: MIC (broth microdilution or agar dilution, CLSI). Particulars: Klebsiella oxytoca; K. oxytoca HAV#450; Clinical; read-out: MIC. In a few lines:
as §1

The subject of experiment [18] is S. aureus ATCC BAA-1707 (MRSA). In words: MIC (broth microdilution or agar dilution, CLSI). Conditions: Staphylococcus aureus; S. aureus HAV#016, ATCC BAA-1707; MRSA; read-out: MIC. In a few lines: as §1
The subject of experiment [19] is E. faecalis MMX 847; cErmB. In words: MIC (broth microdilution or agar dilution, CLSI). Particulars: Enterococcus faecalis; E. faecalis HAV#036, MMX 847; mac-resistant, cErmB; read-out: MIC. In a few lines:
as §1

Experiment [20] concerns S. aureus hVISA. In words: MIC (broth microdilution or agar dilution, CLSI). Conditions: Staphylococcus aureus; S. aureus HAV#204, hVISA; read-out: MIC. In a few lines:
as §1

Experiment [21] concerns E. coli LptD. In words: MIC (broth microdilution or agar dilution, CLSI). Conditions: Escherichia coli, E. coli HAV#040; LptD; read-out: MIC. In a few lines: as §1
The test system of experiment [22] is S. pneumoniae MMX 3028 cErmB. In words: MIC (broth microdilution or agar dilution, CLSI). Conditions: Streptococcus pneumoniae, MMX3028CERMB; S. pneumoniae HAV#033; MMX 3028, cErmB; read-out: MIC. In a few lines: as §1
The mark [23] stands for this setting: ATCC29213, S. aureus ATCC 29213.
The mark [24] stands for this setting: ATCC19615, S. pyogenes ATCC 19615.
Setting [25] is: ATCC29212, E. faecalis ATCC 29212.
Setting [26] is: ATCC49619, S. pneumoniae ATCC 49619.

`CSC1O[C@H]([C@H](NC(=O)[C@@H]2[C@@H]3OCC[C@@H](C4CCCCC4)C[C@H]3CN2C)[C@H](C)Cl)CC(O)[C@H]1O` (stereo partly shown) [FSA-513002b]: the MIC in experiment [1] came out at 8 µg/mL (≈ 15.4 µM); in [2] (setting [23]) it was 0.5 µg/mL (≈ 0.963 µM); in [3] (ATCC25922, E. coli ATCC 25922, read-out: MIC), 128 µg/mL (≈ 247 µM); in [4] (setting [24]), 0.25 µg/mL (≈ 0.482 µM); in experiment [5] (setting [25]) it was 0.5 µg/mL (≈ 0.963 µM); in experiment [6] (setting [26]), 0.25 µg/mL (≈ 0.482 µM). Moreover, the MIC in [7] (H. influenzae ATCC 49247, read-out: MIC) was found to be 8 µg/mL (≈ 15.4 µM); in [8] it was 16 µg/mL (≈ 30.8 µM).

In the case of `CSC1O[C@H]([C@H](NC(=O)[C@@H]2[C@@H]3OCC[C@H](CC(C)(C)C)C[C@H]3CN2C)[C@H](C)Cl)CC(O)[C@H]1O` (stereo partly shown) [FSA-513004a], the MIC in experiment [1] was more than 128 µg/mL; in [2] (setting [23]), 1 µg/mL (≈ 1.97 µM); in [3] (ATCC25922, E. coli ATCC 25922) it was more than 128 µg/mL; in experiment [4] (setting [24]) it was 0.25 µg/mL (≈ 0.493 µM); in experiment [5] (setting [25]), 1 µg/mL (≈ 1.97 µM); in experiment [6] (setting [26]) it was 0.5 µg/mL (≈ 0.986 µM). Besides, the MIC in [7] and in experiment [8] was 128 µg/mL (≈ 252 µM) each time.

On to `Cc1onc(-c2ccccc2)c1C(=O)N[C@@H]1C(=O)N2[C@@H]1SC(C)(C)[C@@H]2C(=O)O` [Oxacillin], for which the MIC in [9] is 0.5 µg/mL (≈ 1.25 µM); in experiment [10] (Enterococcus faecalis, VRE, E. faecalis HAV#251, Clinical VRE), more than 64 µg/mL; in [10] (Staphylococcus aureus, MRSA, S. aureus HAV#0107, MRSA Col(Colindale, England)) it was more than 64 µg/mL; in experiment [10] (Staphylococcus aureus, VISA, S. aureus HAV#203, Clinical (VISA)) it was 64 µg/mL (≈ 159 µM); in experiment [11], 64 µg/mL (≈ 159 µM); in experiment [12], 16 µg/mL (≈ 39.9 µM). Moreover, the MIC in [13] is more than 64 µg/mL; in experiment [14] it was 16 µg/mL (≈ 39.9 µM); in experiment [15], 0.5 µg/mL (≈ 1.25 µM); in experiment [16], 0.25 µg/mL (≈ 0.623 µM); in [2] (ATCC29213, S. aureus HAV#001, ATCC 29213, MP-549), 0.5 µg/mL (≈ 1.25 µM); in experiment [17] it was more than 64 µg/mL. The MIC was more than 64 µg/mL in [3] (ATCC25922, E. coli HAV#006, ATCC 25922, read-out: MIC); 0.125 µg/mL (≈ 0.311 µM) in [4] (ATCC19615, S. pyogenes HAV#004, ATCC 19615); 32 µg/mL (≈ 79.7 µM) in experiment [5] (ATCC29212, E. faecalis HAV#005, ATCC 29212); more than 64 µg/mL in experiment [18]; 64 µg/mL (≈ 159 µM) in experiment [19]; 64 µg/mL (≈ 159 µM) in experiment [20]. The MIC worked out at 4 µg/mL (≈ 9.96 µM) in [21]; 2 µg/mL (≈ 4.98 µM) in [6] (ATCC49619, S. pneumoniae HAV#003, ATCC 49619); 2 µg/mL (≈ 4.98 µM) in [22].
